Laboratory results as given in ChEMBL document CHEMBL1132307, “(2R,1'S,2'R,3'S)-2-(2'-Carboxy-3'-phenylcyclopropyl)glycine (PCCG-13), the first potent and selective competitive antagonist of phospholipase D-coupled metabotropic glutamate receptors: asymmetric synthesis and preliminary biological properties” (J Med Chem, 1999).

Tests used:
Format in all cases: functional, tissue-based
Details in all cases: Hippocampus
[1] = Agonistic activity against phospholipase D (PLD) was determined in adult rat hippocampal slices
[2] = Antagonistic activity against phospholipase D (PLD) was determined in adult rat hippocampal slices
[3] = Antagonistic activity against phospholipase C (PLC) was determined in adult rat hippocampal slices

| Structure (SMILES) | EC50 [1] | IC50 [2] | IC50 [3] |
| --- | --- | --- | --- |
| N[C@@]1(C(=O)O)CC[C@@H](C(=O)O)C1 | 30 µM |  |  |
| NC(C(=O)O)[C@@H]1[C@H](C(=O)O)[C@H]1c1ccccc1 (stereo partly specified) |  | 0.025 µM | > 300 µM |
| CC(N)(C(=O)O)c1ccc(C(=O)O)cc1 (stereo unspecified) | 110 µM | 530 µM |  |
| N[C@H](C(=O)O)c1cc(O)cc(O)c1 |  | 70 µM |  |
